Assays:
[1] = target: T1, α2δ-subunit of a calcium channel (Sus scrofa, UniProt A0A287BIN3); assay: radioligand binding assay using [3H]-gabapentin; conditions: α2δ-subunit derived from porcine brain tissue
T1 construct: the α2δ-subunit derived from porcine brain tissue was used; from tissue; host or cells: porcine brain tissue
Source text: The ability of compounds of the present invention to bind to the α2δ-subunit of a calcium channel can be determined using the following binding assay.
The radioligand binding assay using [^3H]-gabapentin and the α2δ-subunit derived from porcine brain tissue was used. See Nicolas S. Gee et al., “The novel anticonvulsant drug, gabapentin (Neurontin), binds to the α2 subunit of a calcium channel,” J. Biol. Chem. 271 (10):5768-76 (1996). Compounds of the invention bind with nanomolar to micromolar affinity for the α2δ protein.

T1 sequence (A0A287BIN3 25-1109): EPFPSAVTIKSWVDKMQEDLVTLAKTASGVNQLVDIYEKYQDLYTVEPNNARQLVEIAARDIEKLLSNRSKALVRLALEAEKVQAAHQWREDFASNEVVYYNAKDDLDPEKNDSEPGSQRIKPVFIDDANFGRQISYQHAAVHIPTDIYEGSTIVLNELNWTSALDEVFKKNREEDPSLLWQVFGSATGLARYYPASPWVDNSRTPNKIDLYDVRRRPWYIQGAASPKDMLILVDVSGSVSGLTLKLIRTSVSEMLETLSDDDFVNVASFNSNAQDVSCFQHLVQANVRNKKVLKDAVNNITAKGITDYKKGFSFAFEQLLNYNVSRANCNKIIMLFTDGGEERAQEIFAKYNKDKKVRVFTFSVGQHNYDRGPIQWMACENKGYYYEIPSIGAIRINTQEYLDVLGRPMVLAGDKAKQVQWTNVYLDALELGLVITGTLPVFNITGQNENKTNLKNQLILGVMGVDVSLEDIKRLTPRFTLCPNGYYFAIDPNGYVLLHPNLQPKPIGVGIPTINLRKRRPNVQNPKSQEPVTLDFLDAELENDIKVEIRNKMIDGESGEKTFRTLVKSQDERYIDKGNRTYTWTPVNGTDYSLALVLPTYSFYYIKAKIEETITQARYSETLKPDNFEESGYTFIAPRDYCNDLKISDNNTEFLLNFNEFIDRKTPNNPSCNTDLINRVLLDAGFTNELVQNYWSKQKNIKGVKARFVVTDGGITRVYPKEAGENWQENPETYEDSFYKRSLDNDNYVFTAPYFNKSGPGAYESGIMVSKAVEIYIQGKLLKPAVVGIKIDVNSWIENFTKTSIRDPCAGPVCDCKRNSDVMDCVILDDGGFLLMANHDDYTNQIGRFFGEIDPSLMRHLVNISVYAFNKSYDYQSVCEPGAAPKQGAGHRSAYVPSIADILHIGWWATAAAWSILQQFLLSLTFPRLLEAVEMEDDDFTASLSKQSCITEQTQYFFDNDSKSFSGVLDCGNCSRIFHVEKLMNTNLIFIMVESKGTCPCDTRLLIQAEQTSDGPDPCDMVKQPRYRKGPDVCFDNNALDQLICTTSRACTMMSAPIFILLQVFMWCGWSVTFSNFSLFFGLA

| SMILES | affinity to the α2δ protein [1] | melting point |
| --- | --- | --- |
| CC[C@@H](C)C[C@](C)(N)CC(=O)O [(3S,5R)-3-amino-3,5-dimethyl-heptanoic acid] | 236 nM |  |
| CCCCC(CC)CCC(CN)C(=O)O (stereo not shown) [2-aminomethyl-5-ethyl-nonanoic acid] | 75 nM |  |
| CC[C@H](C)C[C@](C)(N)CC(=O)O |  | 215 to 217 °C |
| CCC(CC)C[C@](C)(N)CC(=O)O [(S)-3-amino-5-ethyl-3-methyl-heptanoic acid] | 149 nM |  |
